In patent US8575068B2, “Pyrazinothiazines having herbicidal action” (BASF SE, priority 2010, dated 2013):

Test system: Galium aparine
Experiment: Greenhouse post-emergence herbicidal activity against GALAP
Type: in vivo
Details: application rate 0.5 kg/ha, scale 0 to 100
From the text: The seeds of the test plants were sown separately for each species. For the post-emergence treatment, the test plants were first grown to a height of 3 to 15 cm, depending on the plant habit, and only then treated with the active ingredients which had been suspended or emulsified in water. For this purpose, the test plants were either sown directly and grown in the same containers, or they were first grown separately as seedlings and transplanted into the test containers a few days prior to treatment. Depending on the species, the plants were kept at 10-25° C. or 20-35° C. The test period extended over 2 to 4 weeks. During this time, the plants were tended, and their response to the individual treatments was evaluated. Evaluation was carried out using a scale from 0 to 100. 100 means no emergence of the plants, or complete destruction of at least the aerial moieties, and 0 means no damage, or normal course of growth. A good herbicidal activity is given at values of at least 70 and a very good herbicidal activity is given at values of at least 85. The plants used in the greenhouse experiments belonged to the following species: [table]

SMILES: COCCOc1cccc(C2=C(O)c3nccnc3N(CC(F)F)S2(=O)=O)c1C(F)(F)F [I-6, 1-(2,2-difluoroethyl)-3-[3-(2-methoxyethoxy)-2-(trifluoromethyl)phenyl]-2,2-dioxo-pyrazino[2,3-c]thiazin-4-ol]
- herbicidal activity against GALAP: very good (a very good herbicidal activity is given at values of at least 85)
